Experiment [1] deals with TC-252 Ewing's sarcoma cells. The experiment in a line: Cell viability assay (7AAD, 48 hours), TC-252. Format: cell-based. Conditions: 48 hours exposure; read-out: Cancer cell lines IC50 (μM) TC-252. On the procedure: (§1) Cell viability assays were performed as previously described. Briefly, cells were seeded in 96 well microtiterplates at a density of 3×10^4 cells per well in the presence of the indicated chemical. Cells were harvested 48 hours post-treatment, centrifuged at 1,300×g, washed in phosphate-buffered saline (PBS) and stained with 7AAD solution (2 μg/mL) (7-amino-actinomycin-D, Invitrogen, Carlsbad, Calif.) for 10 mins at room temperature. Viable cells were determined with the use of a FACS Calibur flow cytometer (Becton Dickinson Immunocytometry Systems), and analyzed with the use of FLOWJO (Tree Star, Inc) and GraphPad Prism (GraphPad Software Inc).
(§2) WE-68 and VH-64 Ewing's sarcoma cells were kindly supplied by F. van Valen (Department of Orthopaedic Surgery, Westfalische-Wilhelms-University, Germany).TC-252 and STA-ET-1 Ewing's sarcoma cells were kindly provided by G. Hamilton (Department of Surgery, University of Vienna, Austria) or P. Ambros (Children's Cancer Research Institute, St Anna Children's Hospital, Vienna, Austria). Primary human embryonic fibroblasts or primary human osteoblasts were collected from the Women's and Children's Hospital (North Adelaide, South Australia, Australia) or Royal Adelaide Hospital with patient consent. Mouse Embryonic Fibroblasts (MEFs) and its p53-null derivative were kindly supplied by Guillermina Lozano (Department of Genetics, Anderson Cancer Centre, University of Texas, Houston, Tex., USA). WE-68 cell lines were grown in RPMI-1640 media, whilst human embryonic fibroblasts and MEFs were grown in Dulbecco's Modified Eagle's Medium (DMEM). Media was supplemented with 10% FCS, 1% PSG and 10 mM HEPES. All cells were maintained at 37° C. in a humidified atmosphere of 5% CO2.

Experiment [2] concerns MEF p53+/+ (mouse embryonic fibroblasts). Kind of experiment: Cell viability assay, MEF p53+/+. The class given is cell-based.
Excerpt: Although proteasome inhibitors have been translated from the bench to the clinic over the past decade, their specific mechanisms of action remain poorly understood. As discussed earlier, proteasomal over-activity in tumor cells has been attributed to aberrant degradation of numerous critical cancer-related pro proteins, including the pro-apoptotic tumor suppressor, p53. However, the role of p53 as a downstream mediator of cell death in response to proteasomal inhibition remains unclear. Therefore, we used our small library of CT-L specific proteasome inhibitors (compounds 1-6) to determine the role of p53 in their mechanism of cytotoxic action. For this purpose, we utilized mouse embryonic fibroblasts (MEFs) from transgenic p53^+/+ and p53^−/− littermates. This isogenic pair of cell lines are either competent (MEF p53^+/+) or deficient (MEF p53^−/−) in p53 protein and are used here to assess a potential role for p53 as a downstream inducer of cell death in response to proteasomal inhibition.
as §1, §2

Experiment [3] relates to panel of sarcoma cell lines (WE-68, VH-64, STA-ET-1, TC-252). Kind of experiment: Cell viability assay, panel of four sarcoma cell lines (average). The class given is cell-based. Conditions: for IC50: average of four sarcoma cell lines, read-out: Average IC50 for cancer cell lines; for Therapeutic window: fold change in potency (IC50) against cancer cell line versus normal cell line. The method, then: as §1, §2

For experiment [4], the system named is VH-64 Ewing's sarcoma cells. Kind of experiment: Cell viability assay (7AAD, 48 hours), VH-64. The class given is cell-based. Conditions: 48 hours exposure; read-out: Cancer cell lines IC50 (μM) VH-64. On the procedure: as §1, §2
In experiment [5] the test system is WE-68 Ewing's sarcoma cells. Kind of experiment: Cell viability assay (7AAD, 48 hours), WE-68. Format: cell-based. Conditions: 48 hours exposure; read-out: Cancer cell lines IC50 (μM) WE-68. On the procedure: as §1, §2
Experiment [6] deals with primary human embryonic fibroblasts. Kind of experiment: Cell viability assay (7AAD, 48 hours), normal fibroblasts. The class given is cell-based. Conditions: Fibroblast, 48 hours exposure, read-out: Normal cell lines IC50 (μM) Fibroblasts. On the procedure:
as §1, §2

For experiment [7], the target named is T1, 20S proteasome CP-L activity (Oryctolagus cuniculus, UniProt A0A5F9DQW2).
T1 construct: Purified rabbit 20S proteasome
Kind of experiment: In vitro proteasome activity assay, CP-L (Z-nLPnLD-AMC). Conditions: purified 20S proteasome; highest concentration tested 25,000 nM. Format: biochemical, rabbit. On the procedure: We initially determined the ability of the novel tripeptide MG132 analogues 1-6 and the macrocycles 3a and 4a to inhibit the three separate protease activities of the 20S proteasome (CT-L, -T-L and CP-L). The assays were performed in vitro using purified 20S proteasome/inhibitor mixtures, with the activity of each subunit of the proteasome assessed upon incubation with its respective target peptide. […] In addition, there is no apparent clear-cut preference for the length of tether (compare compounds 1 to 4), while the introduction of an aryl group at P3 (as in 6) is well tolerated.
Purified rabbit 20S proteasome and fluorogenic CT-L substrate (Suc-LLVY-AMC) were purchased from Boston Biochem (Cambridge, Mass., USA). The T-L and CP-L fluorogenic substrates (Ac-RLR-AMC and Z-nLPnLD-AMC) were purchased from Enzo Life Sciences (Farmingdale, N.Y., USA). The 20S proteasome was diluted to 0.2 μg/μL in 20S proteasome buffer (50 mM HEPES pH 7.6, 150 mM NaCl and 1 mM DDT) and stored at −80° C. Purified 20S proteasome (8 ng) was pre-incubated with the indicated concentrations of inhibitors for 15 minutes and subsequently added to the AMC-labeled substrate peptide (50 μM) in assay buffer (25 mM HEPES, pH 7.5, 0.5 mM EDTA, 0.05% NP-40, and 0.001% SDS (w/v)) at 37° C. for 2 hours. Fluorescent substrate cleavage by the 20S proteasome was linear during this incubation timeframe (Supplementary Figure S4. Hydrolysed 7-amino-4-methylcoumarin (AMC) was subsequently detected with the FLUOstar OPTIMA microplatefluorometer at excitation/emission of 390/460 nm. The activity was estimated in relative fluorescence units and half of the maximal inhibitory activity of the proteasome is represented by IC50 values. A minimum of three biological replicates were performed for each data point.

The mark [8] stands for this setting: Mus musculus, Fibroblast; read-out: IC50 in MEF p53+/+.

Like-named read-outs stand apart in the source and are kept apart here. Where a SMILES comes first, the peptide text is derived from it. The star is where a group is joined. Cbz = O=C(OCc1ccccc1)*

T1 sequence (A0A5F9DQW2 1-212): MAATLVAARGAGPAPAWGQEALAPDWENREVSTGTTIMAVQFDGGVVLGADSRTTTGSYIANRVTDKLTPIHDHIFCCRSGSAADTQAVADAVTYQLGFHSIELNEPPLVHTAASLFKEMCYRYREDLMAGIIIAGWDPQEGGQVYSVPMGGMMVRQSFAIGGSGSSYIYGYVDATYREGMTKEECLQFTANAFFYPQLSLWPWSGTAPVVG

Regarding `C#CCOc1ccc(C[C@@H](C=O)NC(=O)[C@H](CC(C)C)NC(=O)[C@H](CCCCN=[N+]=[N-])NC(=O)OCc2ccccc2)cc1` [Compound 4], the IC50 in experiment [1] was 1.6 µM; in experiment [2] (setting [8]) it was 2.7 to 10.3 µM; in experiment [3] it was 4.2 µM; in experiment [4], 1.9 µM; in experiment [5], 10.8 µM; in experiment [6], 39.5 µM. The IC50 in experiment [7] was above 25000 nM. For the same molecule, in experiment [3], the Therapeutic window entry was “×5.9”.

As to `CC(C)C[C@@H](C=O)NC(=O)[C@H](CC(C)C)NC(=O)[C@H](CC(C)C)NC(=O)OCc1ccccc1` [MG132, reference compound] (Cbz-Leu-Leu-Leu-aldehyde), the IC50 came to 0.49 µM in experiment [1]; 0.41 µM in experiment [2] (Mus musculus, Fibroblast, read-out: IC50 in MEF p53+/+); 0.61 µM in experiment [3]; 0.68 µM in experiment [4]; 0.68 µM in experiment [5]; 2.8 µM in experiment [6]. In experiment [7], this molecule returned an IC50 of 545 nM. For the same molecule, the “MEF p53+/+ more sensitive compared to MEF p53-/-” value in experiment [2] was “over 2 fold”. Also, the Therapeutic window entry in experiment [3] is reported as “×4.5”.

With `C#CCOc1ccc(C[C@@H](C=O)NC(=O)[C@H](CC(C)C)NC(=O)[C@H](CCN=[N+]=[N-])NC(=O)OCc2ccccc2)cc1` [Compound 2], the IC50 is 2.3 µM in experiment [1]; 2.7 to 10.3 µM in experiment [2] (setting [8]); 4.3 µM in experiment [3]; 4.9 µM in experiment [4]; 4.7 µM in experiment [5]; 29.4 µM in experiment [6]. For the same molecule, the IC50 in experiment [7] was above 25000 nM. In addition, in experiment [3], the Therapeutic window result is recorded as “×5.0”.

In the case of `C#CCOc1ccc(C[C@@H](C=O)NC(=O)[C@H](CC(C)C)NC(=O)[C@H](Cc2ccc(N=[N+]=[N-])cc2)NC(=O)OCc2ccccc2)cc1` [Compound 6], the IC50 in experiment [1] was 0.64 µM; in experiment [2] (setting [8]), 2.7 to 10.3 µM; in experiment [3], 1.5 µM; in experiment [4], 1.9 µM; in experiment [5], 1.1 µM; in experiment [6], 45.4 µM. For the same molecule, in experiment [7], the IC50 is above 25000 nM. For the same molecule, the “more potency against cancer cells over normal cells” value in experiment [3] was 19 fold. For the same molecule, the Therapeutic window result in experiment [3] was “×19.0”.

For `C#CCOc1ccc(C[C@@H](C=O)NC(=O)[C@@H](NC(=O)[C@H](CCCCN=[N+]=[N-])NC(=O)OCc2ccccc2)[C@@H](C)CC)cc1` [Compound 5], the IC50 is 0.42 µM in experiment [1]; 2.7 to 10.3 µM in experiment [2] (setting [8]); 0.88 µM in experiment [3]; 1.1 µM in experiment [4]; 0.98 µM in experiment [5]; 19.9 µM in experiment [6]. Besides, the IC50 in experiment [7] was above 25000 nM. Also, the Therapeutic window entry in experiment [3] was “×14.1”.

Turning to `C#CCOc1ccc(C[C@@H](C=O)NC(=O)[C@H](CC(C)C)NC(=O)[C@H](CCCN=[N+]=[N-])NC(=O)OCc2ccccc2)cc1` [Compound 3], the IC50 in experiment [1] is 1.2 µM; in experiment [2] (setting [8]), 2.7 to 10.3 µM; in experiment [3] it was 1.6 µM; in experiment [4], 2.1 µM; in experiment [5] it was 0.47 µM; in experiment [6] it was 8.8 µM. For the same molecule, in experiment [7], the IC50 was above 25000 nM. Besides, the Therapeutic window result in experiment [3] is “×8.7”.

These data come from patent publication US20150299250A1, “MACROCYCLIC COMPOUNDS AND USES THEREOF” (ADELAIDE RESEARCH & INNOVATION PTY LTD, priority 2012, published 2015).
